The target in one assay is NDM-1 (Klebsiella pneumoniae, UniProt C7C422). In words: biochemical. The class given is biochemical. To be noted: NDM-1 enzyme, CCF2-FA substrate; read-out: NDM-1 IC50.
The target in a further assay is IMP-1 (Serratia marcescens, UniProt P52699). In words: biochemical. It counts as biochemical. To be noted: IMP-1 enzyme, CCF2-FA substrate; read-out: IMP-1 IC50.
Another assay concerns the target VIM-1 (Pseudomonas aeruginosa (strain ATCC 15692 / DSM 22644 / CIP 104116 / JCM 14847 / LMG 12228 / 1C / PRS 101 / PAO1), UniProt A0A0F7KYQ8). In words: Enzyme activity: determination of IC50, fluorescence assay with CCF2-FA substrate (VIM-1). It counts as biochemical. To be noted: CCF2-FA substrate.
The subject of assay [1] is Escherichia coli expressing NDM-1 (CLB30016). In words: Antibiotic potentiation activity: synergistic concentration (MITC95) with imipenem, OD600 growth. It counts as cell-based. The note with it: (CLB30016, NDM-1), 95% growth inhibition. The method, boiled down:
(§1)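 Bacteria were grown overnight on agar at 35 °C, diluted 1:100 from saline into 1.1× CAMHB, then given compound with or without imipenem (4 μg/ml in assay, optionally 1 μg/ml). Endpoint: absorbance at 22–24 h.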

Assay [2] has as its system Klebsiella pneumoniae expressing VIM-1 (IHMA599644). The assay is described as above. The class given is cell-based. To be noted: Klebsiella pneumoniae IHMA599644 (VIM-1), 95% growth inhibition. The method, boiled down:
as §1

Assay [3] has as its system Serratia marcescens expressing IMP-1 (CL5741). Described as above. The note with it: Serratia marcescens CL5741 (IMP-1), 95% growth inhibition. It counts as cell-based. The method, boiled down: as §1
Where [4] appears, read: VIM-1 enzyme, read-out: VIM-1 IC50.

Experimental findings from patent US9708336B2, “Metallo-beta-lactamase inhibitors” (priority 2014, dated 2017) are described below.

Like-named read-outs stand apart in the source and are kept apart here.

A word on the IC50: it is the concentration needed to halve the response being measured.

Sequence of IMP-1 (P52699 whole entry, looked up): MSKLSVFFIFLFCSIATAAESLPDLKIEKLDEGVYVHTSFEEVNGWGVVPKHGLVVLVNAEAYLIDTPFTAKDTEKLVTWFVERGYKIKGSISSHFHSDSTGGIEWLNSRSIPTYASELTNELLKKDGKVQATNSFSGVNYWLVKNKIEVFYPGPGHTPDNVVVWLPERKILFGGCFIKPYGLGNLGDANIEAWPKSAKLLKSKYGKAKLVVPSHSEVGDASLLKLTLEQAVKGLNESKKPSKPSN
Sequence of NDM-1 (C7C422 whole entry, looked up, species assumed): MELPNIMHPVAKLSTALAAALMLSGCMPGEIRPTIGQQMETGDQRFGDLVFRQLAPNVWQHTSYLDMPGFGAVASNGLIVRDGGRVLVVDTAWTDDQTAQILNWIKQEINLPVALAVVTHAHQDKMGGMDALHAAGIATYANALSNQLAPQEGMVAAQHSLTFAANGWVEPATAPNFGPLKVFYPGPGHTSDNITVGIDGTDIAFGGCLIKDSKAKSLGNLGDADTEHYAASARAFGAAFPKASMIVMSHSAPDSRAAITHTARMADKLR

Take `NS(=O)(=O)c1c(C(F)(F)F)ccc(N2CCN(CCCO)CC2)c1-c1nnn[nH]1` [Example 664, 3-[4-(3-hydroxypropyl)piperazin-1-yl]-2-(1H-tetrazol-5-yl)-6-(trifluoromethyl)benzenesulfonamide]: the concentration for half-maximal inhibition (IC50) is 18.1 nM at NDM-1, 38.5 nM at IMP-1 and 52 nM at VIM-1 (setting [4]). Further, the “Escherichia coli MITC95” value in assay [1] was found to be 0.25 µM. For the same molecule, in assay [2], the “Klebsiella pneumoniae MITC95” value is 6.25 µM. The “Serratia marcescens MITC95” value in assay [3] came out at 0.418 µM.
Consider `NS(=O)(=O)c1c(C(F)(F)F)ccc(N2CCC[C@@H](O)C2)c1-c1nnn[nH]1` [Example 665, 3-[(3R)-3-hydroxypiperidin-1-yl]-2-(1H-tetrazol-5-yl)-6-(trifluoromethyl)benzenesulfonamide], for which the IC50 on NDM-1 is 7.48 nM; at IMP-1 it was 29.8 nM; at VIM-1 (setting [4]), 0.999 nM. In addition, the “Escherichia coli MITC95” value in assay [1] was determined as 1.563 µM. Moreover, the “Klebsiella pneumoniae MITC95” value in assay [2] was found to be 4.688 µM. The “Serratia marcescens MITC95” value in assay [3] stood at 1.172 µM.
As for `NS(=O)(=O)c1c(C(F)(F)F)ccc(N2C[C@H](O)C[C@@H](O)C2)c1-c1nnn[nH]1` [Example 666, 3-[(3R,5R)-3,5-dihydroxypiperidin-1-yl]-2-(1H-tetrazol-5-yl)-6-(trifluoromethyl)benzenesulfonamide], the half-maximal inhibitory concentration (IC50) is 57 nM on NDM-1, 150 nM on IMP-1 and 14.7 nM at VIM-1 (setting [4]). In addition, the “Escherichia coli MITC95” value in assay [1] amounted to 2.344 µM. Further, the “Klebsiella pneumoniae MITC95” value in assay [2] was 12.5 µM. The “Serratia marcescens MITC95” value in assay [3] was 4.688 µM.
For `NS(=O)(=O)c1c(C(F)(F)F)ccc(-c2ccc(C3CCN(CC4CCNCC4)CC3)cc2)c1-c1nnn[nH]1` [Example 668, 4′-[1-(piperidin-4-ylmethyl)piperidin-4-yl]-2-(1H-tetrazol-5-yl)-4-(trifluoromethyl)biphenyl-3-sulfonamide], the IC50 stood at 9.32 nM on NDM-1, 2.8 nM at IMP-1 and 7.04 nM on VIM-1 (setting [4]). Besides, in assay [1], the “Escherichia coli MITC95” value was determined as 1.563 µM. Besides, in assay [2], the “Klebsiella pneumoniae MITC95” value worked out at 50 µM. Besides, the “Serratia marcescens MITC95” value in assay [3] stood at 3.125 µM.
Take `NS(=O)(=O)c1c(C(F)(F)F)ccc(-c2ccc(C3CCN(C[C@@H]4CCCN4)CC3)cc2)c1-c1nnn[nH]1` [Example 669, 4′-{1-[(2S)-pyrrolidin-2-ylmethyl]piperidin-4-yl}-2-(1H-tetrazol-5-yl)-4-(trifluoromethyl)biphenyl-3-sulfonamide]: the IC50 at NDM-1 came out at 3.92 nM; on IMP-1 it was 0.688 nM; at VIM-1 (VIM-1 IC50, VIM-1 enzyme) it was 8.99 nM. The “Escherichia coli MITC95” value in assay [1] was 2.344 µM. Also, the “Klebsiella pneumoniae MITC95” value in assay [2] is greater than 200 µM. Further, the “Serratia marcescens MITC95” value in assay [3] turned out to be 2.344 µM.
Take `NS(=O)(=O)c1c(C(F)(F)F)ccc(-c2ccc(C3CCN(C[C@H]4CNCCO4)CC3)cc2)c1-c1nnn[nH]1` [Example 670, 4′-{1-[(2R)-morpholin-2-ylmethyl]piperidin-4-yl}-2-(1H-tetrazol-5-yl)-4-(trifluoromethyl)biphenyl-3-sulfonamide]: the IC50 on NDM-1 worked out at 4.11 nM; at IMP-1, 1.08 nM; on VIM-1 (setting [4]) it was 3.53 nM. Moreover, the “Escherichia coli MITC95” value in assay [1] was 1.563 µM. Besides, in assay [2], the “Klebsiella pneumoniae MITC95” value was 25 µM. Further, the “Serratia marcescens MITC95” value in assay [3] was 3.125 µM.
On to `NS(=O)(=O)c1c(C(F)(F)F)ccc(-c2ccc(C3CCN(CC4CNC4)CC3)cc2)c1-c1nnn[nH]1` [Example 671, 4′-[1-(azetidin-3-ylmethyl)piperidin-4-yl]-2-(1H-tetrazol-5-yl)-4-(trifluoromethyl)biphenyl-3-sulfonamide], for which the half-maximal inhibitory concentration (IC50) worked out at 4.13 nM at NDM-1, 2 nM on IMP-1 and 5.65 nM at VIM-1 (setting [4]). Further, the “Escherichia coli MITC95” value in assay [1] came out at 1.172 µM. The “Klebsiella pneumoniae MITC95” value in assay [2] came out at 37.5 µM. In assay [3], the “Serratia marcescens MITC95” value was 1.563 µM.
As for `NC1(CN2CCC(c3ccc(-c4ccc(C(F)(F)F)c(S(N)(=O)=O)c4-c4nnn[nH]4)cc3)CC2)CC1` [Example 672, 4′-{1-[(1-aminocyclopropyl)methyl]piperidin-4-yl}-2-(1H-tetrazol-5-yl)-4-(trifluoromethyl)biphenyl-3-sulfonamide], the IC50 on NDM-1 was found to be 3.66 nM; on IMP-1, 2.51 nM; against VIM-1 (VIM-1 IC50, VIM-1 enzyme), 3.38 nM. For the same molecule, the “Escherichia coli MITC95” value in assay [1] was found to be 6.25 µM. The “Klebsiella pneumoniae MITC95” value in assay [2] was 75 µM. Besides, the “Serratia marcescens MITC95” value in assay [3] stood at 4.688 µM.
On to `NS(=O)(=O)c1c(C(F)(F)F)ccc(-c2ccc(C3CCN(CC4CCCNC4)CC3)cc2)c1-c1nnn[nH]1` (stereo not drawn) [Example 673, 4′-[1-(piperidin-3-ylmethyl)piperidin-4-yl]-2-(1H-tetrazol-5-yl)-4-(trifluoromethyl)biphenyl-3-sulfonamide], for which the figures for the IC50 on NDM-1, on IMP-1 and on VIM-1 (setting [4]) were 10.1 nM, 1.35 nM and 9.07 nM, respectively. The “Escherichia coli MITC95” value in assay [1] was found to be 3.125 µM. The “Klebsiella pneumoniae MITC95” value in assay [2] came out at 62.5 µM. For the same molecule, the “Serratia marcescens MITC95” value in assay [3] came to 3.125 µM.
On to `CNCCN1CCC(c2ccc(-c3ccc(C(F)(F)F)c(S(N)(=O)=O)c3-c3nnn[nH]3)cc2)CC1` [Example 674, 4′-{1-[2-(methylamino)ethyl]piperi-din-4-yl}-2-(1H-tetrazol-5-yl)-4-(trifluoromethyl)biphenyl-3-sulfonamide], for which the IC50 on NDM-1 turned out to be 6.63 nM; at IMP-1, 2.47 nM; at VIM-1 (setting [4]), 17.4 nM. The “Escherichia coli MITC95” value in assay [1] worked out at 3.125 µM. The “Klebsiella pneumoniae MITC95” value in assay [2] was 75 µM. Moreover, the “Serratia marcescens MITC95” value in assay [3] is 6.25 µM.
In the case of `NS(=O)(=O)c1c(C(F)(F)F)ccc(-c2ccc(C3CCN(C[C@H]4CCCN4)CC3)cc2)c1-c1nnn[nH]1` [Example 675, 4′-{1-[(2R)-pyrrolidin-2-ylmethyl]piperidin-4-yl}-2-(1H-tetrazol-5-yl)-4-(trifluoromethyl)biphenyl-3-sulfonamide], the IC50 on NDM-1 is 4.53 nM; at IMP-1, 1.94 nM; against VIM-1 (VIM-1 IC50, VIM-1 enzyme), 14.7 nM. For the same molecule, the “Escherichia coli MITC95” value in assay [1] was determined as 4.688 µM. In assay [2], the “Klebsiella pneumoniae MITC95” value was 150 µM. For the same molecule, in assay [3], the “Serratia marcescens MITC95” value is 6.25 µM.
As for `NS(=O)(=O)c1c(C(F)(F)F)ccc(-c2ccc(C3CCN(CC4CCCCN4)CC3)cc2)c1-c1nnn[nH]1` (stereo not drawn) [Example 676, 4′-[1-(piperidin-2-ylmethyl)piperidin-4-yl]-2-(1H-tetrazol-5-yl)-4-(trifluoromethyl)biphenyl-3-sulfonamide], the IC50 was 5.59 nM at NDM-1, 1.26 nM at IMP-1 and 9.1 nM at VIM-1 (setting [4]). For the same molecule, the “Escherichia coli MITC95” value in assay [1] came out at 12.5 µM. The “Klebsiella pneumoniae MITC95” value in assay [2] was greater than 200 µM. Moreover, the “Serratia marcescens MITC95” value in assay [3] came out at 6.25 µM.
Turning to `C[N+](C)(C)CCN1CCC(c2ccc(-c3ccc(C(F)(F)F)c(S(N)(=O)=O)c3-c3nnn[nH]3)cc2)CC1` [Example 677, N,N,N-trimethyl-2-{4-[3′-sulfamoyl-2′-(1H-tetrazol-5-yl)-4′-(trifluoromethyl)biphenyl-4-yl]piperidin-1-yl}ethanaminium], the 50% inhibitory concentration (IC50) on NDM-1 was found to be 4.17 nM; at IMP-1, 0.541 nM; at VIM-1 (setting [4]) it was 19.4 nM. For the same molecule, the “Escherichia coli MITC95” value in assay [1] worked out at 12.5 µM. The “Klebsiella pneumoniae MITC95” value in assay [2] was greater than 200 µM. For the same molecule, in assay [3], the “Serratia marcescens MITC95” value is 12.5 µM.
In the case of `NS(=O)(=O)c1c(C(F)(F)F)ccc(-c2ccc(C3CCN(C[C@@H]4CNCCO4)CC3)cc2)c1-c1nnn[nH]1` [Example 678, 4′-{1-[(2S)-morpholin-2-ylmethyl]piperidin-4-yl}-2-(1H-tetrazol-5-yl)-4-(trifluoromethyl)biphenyl-3-sulfonamide], the results for the 50% inhibitory concentration (IC50) at NDM-1, at IMP-1 and on VIM-1 (setting [4]) were 15.3 nM, 5 nM and 20.7 nM, respectively. Further, the “Escherichia coli MITC95” value in assay [1] came to 9.375 µM. The “Klebsiella pneumoniae MITC95” value in assay [2] was found to be 150 µM. The “Serratia marcescens MITC95” value in assay [3] was determined as 6.25 µM.
On to `NS(=O)(=O)c1c(C(F)(F)F)ccc([C@H]2CC[C@H](N[C@H]3CC[C@H]4CCN[C@H]4C3)CC2)c1-c1nnn[nH]1` [Example 679, 3-{4-[(3aS,6S,7aS)-octahydro-1H-indol-6-ylamino]cyclohexyl}-2-(1H-tetrazol-5-yl)-6-(trifluoromethyl)benzene sulfonamide], for which the IC50 was 19.8 nM at NDM-1; 75.3 nM on IMP-1; 21.2 nM at VIM-1 (VIM-1 IC50, VIM-1 enzyme). Moreover, the “Escherichia coli MITC95” value in assay [1] came out at 1.563 µM. In addition, the “Klebsiella pneumoniae MITC95” value in assay [2] was found to be 50 µM. Also, the “Serratia marcescens MITC95” value in assay [3] was determined as 3.125 µM.
`NS(=O)(=O)c1c(C(F)(F)F)ccc([C@H]2CC[C@H](NCC3CCNCC3)CC2)c1-c1nnn[nH]1` [Example 680, 3-{4-[(piperidin-4-ylmethyl)amino]cyclohex-yl}-2-(1H-tetrazol-5-yl)-6-(trifluoromethyl)benzene sulfonamide]: the 50% inhibitory concentration (IC50) at NDM-1 came to 41.4 nM; on IMP-1, 86.6 nM; at VIM-1 (setting [4]), 5.16 nM. Further, the “Escherichia coli MITC95” value in assay [1] is 1.563 µM. Further, the “Klebsiella pneumoniae MITC95” value in assay [2] is 6.25 µM. In addition, the “Serratia marcescens MITC95” value in assay [3] is 3.125 µM.
